Assay results published in ChEMBL document CHEMBL3232730, “Design, synthesis and bioevaluation of N-trisubstituted pyrimidine derivatives as potent aurora A kinase inhibitors” (Eur J Med Chem, 2014).

Experiments:
HL-60 = experiment: Antiproliferative activity against human HL60 cells assessed as cell viability after 72 hrs by CCK8 assay; assay type: functional, cell-based; settings: Homo sapiens, HL-60, 72 h; read-out: IC50
HeLa = experiment: Antiproliferative activity against human HeLa cells assessed as cell viability after 72 hrs by CCK8 assay; assay type: functional, cell-based; settings: Homo sapiens, HeLa, 72 h; read-out: IC50
[1] = Cell cycle arrest in human CNE2 cells assessed as accumulation at polyploid period at 1 uM after 24 hrs by propidium iodide staining-based flow cytometric analysis (reference value: […]); assay type: functional; settings: CNE-2
PC-3 = experiment: Antiproliferative activity against human PC3 cells assessed as cell viability after 72 hrs by CCK8 assay; assay type: functional, cell-based; settings: Homo sapiens, PC-3, 72 h; read-out: IC50
K562 = experiment: Antiproliferative activity against human K562 cells assessed as cell viability after 72 hrs by CCK8 assay; assay type: functional, cell-based; settings: Homo sapiens, K562, 72 h; read-out: IC50
[2] = Antiproliferative activity against human PANC1 cells assessed as cell viability after 72 hrs by CCK8 assay; assay type: functional, cell-based; settings: PANC-1, 72 h
DU-145 = experiment: Antiproliferative activity against human DU145 cells assessed as cell viability after 72 hrs by CCK8 assay; assay type: functional, cell-based; settings: Homo sapiens, DU-145, 72 h; read-out: IC50
[3] = Cell cycle arrest in human CNE2 cells assessed as accumulation at G1 phase at 1 uM after 24 hrs by propidium iodide staining-based flow cytometric analysis (reference value: 52.5%); assay type: functional; settings: CNE-2
[4] = Cell cycle arrest in human CNE2 cells assessed as accumulation at S phase at 1 uM after 24 hrs by propidium iodide staining-based flow cytometric analysis (reference value: 14.7%); assay type: functional; settings: CNE-2
[5] = Antiproliferative activity against human MOLT4 cells assessed as cell viability after 72 hrs by CCK8 assay; assay type: functional, cell-based, MOLT-4; settings: Homo sapiens, MOLT-4, 72 h; read-out: IC50
A-431 = experiment: Antiproliferative activity against human A431 cells assessed as cell viability after 72 hrs by CCK8 assay; assay type: functional, cell-based; settings: Homo sapiens, A-431, 72 h; read-out: IC50
[6] = Antiproliferative activity against human SKBR3 cells assessed as cell viability after 72 hrs by CCK8 assay; assay type: functional, cell-based, SK-BR-3; settings: Homo sapiens, SK-BR-3, 72 h; read-out: IC50
[7] = Cell cycle arrest in human CNE2 cells assessed as accumulation at G2/M phase at 1 uM after 24 hrs by propidium iodide staining-based flow cytometric analysis (reference value: 38.2%); assay type: functional; settings: CNE-2
A549 = experiment: Antiproliferative activity against human A549 cells assessed as cell viability after 72 hrs by CCK8 assay; assay type: functional, cell-based; settings: A549, 72 h
HCT-116 = experiment: Antiproliferative activity against human HCT116 cells assessed as cell viability after 72 hrs by CCK8 assay; assay type: functional, cell-based; settings: Homo sapiens, HCT-116, 72 h; read-out: IC50
MCF7 = experiment: Antiproliferative activity against human MCF7 cells assessed as cell viability after 72 hrs by CCK8 assay; assay type: functional, cell-based; settings: Homo sapiens, MCF7, 72 h; read-out: IC50
MDA-MB-231 = experiment: Antiproliferative activity against human MDA-MB-231 cells assessed as cell viability after 72 hrs by CCK8 assay; assay type: functional, cell-based; settings: Homo sapiens, MDA-MB-231, 72 h; read-out: IC50
NCI-N87 = experiment: Antiproliferative activity against human NCI-N87 cells assessed as cell viability after 72 hrs by CCK8 assay; assay type: functional, cell-based; settings: Homo sapiens, NCI-N87, 72 h; read-out: IC50
Aurora kinase A = target: T1, Aurora kinase A (Homo sapiens, UniProt O14965); experiment: Inhibition of Aurora A (unknown origin) using FAM-labeled peptide as substrate preincubated for 10 mins followed by substrate addition measured after 60 mins
T1 sequence (O14965 whole entry): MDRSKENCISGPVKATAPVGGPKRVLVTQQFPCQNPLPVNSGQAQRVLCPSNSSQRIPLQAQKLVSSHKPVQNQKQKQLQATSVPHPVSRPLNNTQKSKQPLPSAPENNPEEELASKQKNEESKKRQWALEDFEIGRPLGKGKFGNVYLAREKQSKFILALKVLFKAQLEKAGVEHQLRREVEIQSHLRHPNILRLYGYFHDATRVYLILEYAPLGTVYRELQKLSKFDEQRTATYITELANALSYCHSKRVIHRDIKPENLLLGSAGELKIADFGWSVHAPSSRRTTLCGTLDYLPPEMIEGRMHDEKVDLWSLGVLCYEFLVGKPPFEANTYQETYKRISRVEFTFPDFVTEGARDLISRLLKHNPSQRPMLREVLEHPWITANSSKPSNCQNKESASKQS

U-937 = experiment: Antiproliferative activity against human U937 cells assessed as cell viability after 72 hrs by CCK8 assay; assay type: functional, cell-based; settings: Homo sapiens, U-937, 72 h; read-out: IC50
[8] = Cell cycle arrest in human CNE2 cells assessed as accumulation at G1 phase at 0.01 uM after 24 hrs by propidium iodide staining-based flow cytometric analysis (reference value: 52.5%); assay type: functional; settings: CNE-2
[9] = Cell cycle arrest in human CNE2 cells assessed as accumulation at S phase at 0.1 uM after 24 hrs by propidium iodide staining-based flow cytometric analysis (reference value: 13.1%); assay type: functional; settings: CNE-2
[10] = Cell cycle arrest in human CNE2 cells assessed as accumulation at polyploid period at 0.01 uM after 24 hrs by propidium iodide staining-based flow cytometric analysis (reference value: […]); assay type: functional; settings: CNE-2
[11] = Cell cycle arrest in human CNE2 cells assessed as accumulation at G2/M phase at 0.01 uM after 24 hrs by propidium iodide staining-based flow cytometric analysis (reference value: 31%); assay type: functional; settings: CNE-2
[12] = Cell cycle arrest in human CNE2 cells assessed as accumulation at G2/M phase at 0.1 uM after 24 hrs by propidium iodide staining-based flow cytometric analysis (reference value: 24.5%); assay type: functional; settings: CNE-2
[13] = Cell cycle arrest in human CNE2 cells assessed as accumulation at S phase at 0.01 uM after 24 hrs by propidium iodide staining-based flow cytometric analysis (reference value: 14.9%); assay type: functional; settings: CNE-2
[14] = Cell cycle arrest in human CNE2 cells assessed as accumulation at polyploid period at 0.1 uM after 24 hrs by propidium iodide staining-based flow cytometric analysis (reference value: […]%); assay type: functional; settings: CNE-2
[15] = Cell cycle arrest in human CNE2 cells assessed as accumulation at G1 phase at 0.1 uM after 24 hrs by propidium iodide staining-based flow cytometric analysis (reference value: […]); assay type: functional; settings: CNE-2
[16] = Cell cycle arrest in human CNE2 cells assessed as accumulation at G2/M phase after 24 hrs by propidium iodide staining-based flow cytometric analysis; assay type: functional; settings: CNE-2

SMILES	IC50 (HL-60) [nM]	IC50 (HeLa) [nM]	IC50 (PC-3) [nM]	IC50 (K562) [nM]	IC50 (DU-145) [nM]	IC50 (A-431) [nM]	IC50 (A549) [nM]	IC50 (HCT-116) [nM]	IC50 (MCF7) [nM]	IC50 (MDA-MB-231) [nM]	IC50 (Aurora kinase A) [nM]	IC50 (U-937) [nM]	Activity [1] [%]	IC50 [2] [nM]	Activity [3] [%]	Activity [4] [%]	IC50 [5] [nM]	IC50 [6] [nM]	Activity [7] [%]	IC50 (NCI-N87) [nM]	also measured
COc1ccc(Nc2nc(Nc3cc(C)[nH]n3)cc(N3CCN(C)CC3)n2)cc1	335	867	2000	271	5050	385	2650	2240	2750	243	34	92.3	2.4	1120	3.4	2.2	116	14700	90.6	18900	
Cc1cc(Nc2cc(N3CCN(C)CC3)nc(Nc3cccc(Cl)c3)n2)n[nH]1	131	425	573	97.2	3090	87.5	723	736	436	56.4	10	21.7	3.9	351	3.3	1.7	20.1	2290	90.5	1770	
COc1cccc(Nc2nc(Nc3cc(C)[nH]n3)cc(N3CCN(C)CC3)n2)c1	397	546	1080	509	2650	332	1690	923	933	240	22	126	2.4	693	3.2	1.7	192	11300	92.5	7190	Activity [8]: 61.7%; Activity [9]: 6.9%; Activity [10]: 4.6%; Activity [11]: 26.1%; Activity [12]: 32.2%; Activity [13]: 8.1%; Activity [14]: 4%; Activity [15]: 57.2%; Activity [16]: Dose-dependent effect

Continued, in another order:

IC50 (HL-60) [nM]	IC50 (HeLa) [nM]	IC50 (PC-3) [nM]	IC50 (K562) [nM]	IC50 (DU-145) [nM]	IC50 (A-431) [nM]	IC50 (A549) [nM]	IC50 (HCT-116) [nM]	IC50 (MCF7) [nM]	IC50 (MDA-MB-231) [nM]	IC50 (Aurora kinase A) [nM]	IC50 (U-937) [nM]	SMILES	Activity [1] [%]	IC50 [2] [nM]	Activity [3] [%]	Activity [4] [%]	IC50 [5] [nM]	IC50 [6] [nM]	Activity [7] [%]	IC50 (NCI-N87) [nM]	also measured
203	1270	1500	359	798	532	1830	672	1780	359	46	119	COC(=O)c1ccc(Nc2nc(Nc3cc(C)[nH]n3)cc(N3CCN(C)CC3)n2)cc1	11.2	1080	1.7	2.2	161	8650	84.3	17800	
181	985	1360	307	499	440	1220	1660	1320	162	22	103	Cc1cc(Nc2cc(N3CCN(C)CC3)nc(Nc3ccc(C(=O)OC(C)C)cc3)n2)n[nH]1	7	1320	1.9	1.7	94.1	4020	89	6320	
